Source: patent publication US12030896B2, “PIKfyve inhibitors” (Mayo Foundation for Medical Education and Research, priority 2018, dated 2024)

Assays:
[1] = test system: Human colorectal carcinoma cell lines (HCT116, HT29); experiment: Killing of colorectal carcinoma cell lines (Cell-titer glow); format: cell-based; details: HCT116, HT29 vs brain tumor cell lines
Method: Human colorectal carcinoma cell lines were similarly tested for killing by the compound. (ATP activity is defined by use of the Cell-titer glow luminescence assay). […] All experiments were performed using RPMI media (Life Technologies) as the base formulation for “complete” media. HT29 cells require physical scraping in addition to trypsin to dissociate from tissue culture plastic.

[2] = biological target: PIKfyve (Homo sapiens, UniProt Q9Y2I7); experiment: Kinase panel screen: inhibition of PIKfyve; format: binding; details: 50 nM
Method: No other kinase was blocked to that extent by 50 nM of Example 1, indicating its high degree of selectivity.
In contrast, 50 nM Apilimod inhibited two kinases to 1% or 10%, and 3 kinases to 35% of control. To examine non-specific binding at higher concentrations, Example 1, Example 3, and Apilimod were tested at 5000 nM. […] PIKfyve is represented at the bottom left of each dendrogram.

[3] = Solubility; format: physicochemical
Method: The compound has a molecular weight of 428.5. It is soluble in DMSO. In addition, solutions of at least 10 mg/ml can be prepared using a mixture of DMSO (10%), cremaphor (20%), and water (70%).

[4] = test system: Human lymphoma cell lines; experiment: Killing of human lymphoma cell lines; format: cell-based; details: 72 hours
Method: Human lymphoma cell lines were incubated for 72 hours with various concentrations of the compound, and survival determined by cell counting or by ATP assay, as shown in FIG. 7. In the lymphoma experiments, RPMI media (Life Technologies) was used as the base formulation for “complete” media. Trypsin was not needed for these non-adherent cell lines. For the “cell-counting” data, cells were pipetted up and down to evenly disburse, then 10 μL of the suspension was counted using an Accuri C6 cytometer, using on forward and side scatter to gate on a viable population.

[5] = test system: Human Glioblastoma multiforme cells (T98G, G22VF, U251) and human medulloblastoma cells (p16, p9); experiment: Cell viability by cell titer-Glo luminescence (ATP level) assay; format: cell-based; details: 72 hours, various concentrations
Method: Human Glioblastoma multiforme cells (T98G, G22VF, U251) and human medulloblastoma cells (p16, p9) were incubated with various concentrations of Example 1 for 72 hours, and then cell viability assessed by cell titer-Glo luminescence (ATP level) assay.
Methods: Example 1 was dissolved into DMSO (ATCC) at a concentration of 40 mM, this stock was further diluted to 2× the highest final working concentration into complete medium consisting of DMEM (Life Technologies), penicillin/streptomycin antibiotic solution (Life Technologies), and 10% FBS (Seradigm). This stock was dispensed into the final column of a white-walled, flat-bottomed 96-well plate (Corning). Serial dilutions (1.5× or 2× depending on the assay) were then made using complete medium down to the lowest assayed concentration of Example 1. The final column of the 96-well plate was saved as a vehicle-only control and included DMSO diluted 1:250 in complete medium. […]
These plates were placed in a 5% CO2, 37° C. incubator. After 72 hrs of incubation, relative ATP content was measured as an indirect indication of the number of viable cells per well. […] This reaction was protected from light and incubated for 10 min at room temperature, then total luminescence was read using a Synergy H1 microplate reader (Biotek).
Raw luminescence numbers or relative ATP concentration (reported as a percentage of the vehicle-treated control) are show. […]

[6] = test system: Murine lymphoma cells (E2409, EC+F); experiment: Killing of murine lymphoma cells, 48 hour assay; format: cell-based
Method: All experiments in FIG. 6 were performed using RPMI media (Life Technologies) was used as the base formulation and culture medium also contained 1 mM Sodium Pyruvate, 100 mM HEPES, 2 mM additional L-Glutamine, 55 uM 2-mercaptoethanol, and 1×MEM NEAA Solution (all from Life Technologies). Trypsin was not necessary for these non-adherent cells. Presto Blue reagent (Life Technologies) was used as an endpoint assay using the same procedure described in previously for Alamar Blue, with a 30 minute incubation time.

[7] = test system: U251 glioblastoma cells; experiment: LC3 / p62 western blotting (autophagy); format: cell-based, human
Method: Macroautophagy (hereafter “autophagy”) is a process that requires precise fusion of endosomes, autophagosomes, and lysosomes. Lysates from cells treated with Example 1 were prepared and probed by western blotting for LC3-I and LC3-II. Increased levels of LC3-II and increased p62 (sequestesome) were found showing the increased drive to undergo autophagy, in the face of inability to complete the process (i.e. ineffective autophagy). Lysosomes are the final destination of proteins destined for degradation by autophagy, and proteolysis in this organelle depends upon cathepsins among other enzymes.
FIG. 23 contains images showing induction of autophagy the Example 1 as evidenced by accumulation of LC3 over time. U251 glioblastoma cells were treated with 25, 500, or 20,000 nM MC042 for the indicated time periods, and then lysates prepared and blotted for LC3 and tubulin (loading control). Starting a t 6 hours, and becoming more evident by 24 hours, LC3-II (the lower band marked LC3) accumulated, indicating activation of autophagy.

[8] = test system: RKO (colon cancer) cells; experiment: LC3 western blotting (autophagy); format: cell-based; details: 1 μM
[9] = test system: Glioblastoma (T98G, U251) or colorectal cancer cell lines (HT29, RKO, HCT116); experiment: Killing of glioblastoma and colorectal cancer cell lines by Example 3; format: cell-based
Method: Experiments were performed using DMEM-based media for the glioblastoma lines and RMPI-based media for the colorectal lines.

Sequence of PIKfyve (Q9Y2I7 whole entry): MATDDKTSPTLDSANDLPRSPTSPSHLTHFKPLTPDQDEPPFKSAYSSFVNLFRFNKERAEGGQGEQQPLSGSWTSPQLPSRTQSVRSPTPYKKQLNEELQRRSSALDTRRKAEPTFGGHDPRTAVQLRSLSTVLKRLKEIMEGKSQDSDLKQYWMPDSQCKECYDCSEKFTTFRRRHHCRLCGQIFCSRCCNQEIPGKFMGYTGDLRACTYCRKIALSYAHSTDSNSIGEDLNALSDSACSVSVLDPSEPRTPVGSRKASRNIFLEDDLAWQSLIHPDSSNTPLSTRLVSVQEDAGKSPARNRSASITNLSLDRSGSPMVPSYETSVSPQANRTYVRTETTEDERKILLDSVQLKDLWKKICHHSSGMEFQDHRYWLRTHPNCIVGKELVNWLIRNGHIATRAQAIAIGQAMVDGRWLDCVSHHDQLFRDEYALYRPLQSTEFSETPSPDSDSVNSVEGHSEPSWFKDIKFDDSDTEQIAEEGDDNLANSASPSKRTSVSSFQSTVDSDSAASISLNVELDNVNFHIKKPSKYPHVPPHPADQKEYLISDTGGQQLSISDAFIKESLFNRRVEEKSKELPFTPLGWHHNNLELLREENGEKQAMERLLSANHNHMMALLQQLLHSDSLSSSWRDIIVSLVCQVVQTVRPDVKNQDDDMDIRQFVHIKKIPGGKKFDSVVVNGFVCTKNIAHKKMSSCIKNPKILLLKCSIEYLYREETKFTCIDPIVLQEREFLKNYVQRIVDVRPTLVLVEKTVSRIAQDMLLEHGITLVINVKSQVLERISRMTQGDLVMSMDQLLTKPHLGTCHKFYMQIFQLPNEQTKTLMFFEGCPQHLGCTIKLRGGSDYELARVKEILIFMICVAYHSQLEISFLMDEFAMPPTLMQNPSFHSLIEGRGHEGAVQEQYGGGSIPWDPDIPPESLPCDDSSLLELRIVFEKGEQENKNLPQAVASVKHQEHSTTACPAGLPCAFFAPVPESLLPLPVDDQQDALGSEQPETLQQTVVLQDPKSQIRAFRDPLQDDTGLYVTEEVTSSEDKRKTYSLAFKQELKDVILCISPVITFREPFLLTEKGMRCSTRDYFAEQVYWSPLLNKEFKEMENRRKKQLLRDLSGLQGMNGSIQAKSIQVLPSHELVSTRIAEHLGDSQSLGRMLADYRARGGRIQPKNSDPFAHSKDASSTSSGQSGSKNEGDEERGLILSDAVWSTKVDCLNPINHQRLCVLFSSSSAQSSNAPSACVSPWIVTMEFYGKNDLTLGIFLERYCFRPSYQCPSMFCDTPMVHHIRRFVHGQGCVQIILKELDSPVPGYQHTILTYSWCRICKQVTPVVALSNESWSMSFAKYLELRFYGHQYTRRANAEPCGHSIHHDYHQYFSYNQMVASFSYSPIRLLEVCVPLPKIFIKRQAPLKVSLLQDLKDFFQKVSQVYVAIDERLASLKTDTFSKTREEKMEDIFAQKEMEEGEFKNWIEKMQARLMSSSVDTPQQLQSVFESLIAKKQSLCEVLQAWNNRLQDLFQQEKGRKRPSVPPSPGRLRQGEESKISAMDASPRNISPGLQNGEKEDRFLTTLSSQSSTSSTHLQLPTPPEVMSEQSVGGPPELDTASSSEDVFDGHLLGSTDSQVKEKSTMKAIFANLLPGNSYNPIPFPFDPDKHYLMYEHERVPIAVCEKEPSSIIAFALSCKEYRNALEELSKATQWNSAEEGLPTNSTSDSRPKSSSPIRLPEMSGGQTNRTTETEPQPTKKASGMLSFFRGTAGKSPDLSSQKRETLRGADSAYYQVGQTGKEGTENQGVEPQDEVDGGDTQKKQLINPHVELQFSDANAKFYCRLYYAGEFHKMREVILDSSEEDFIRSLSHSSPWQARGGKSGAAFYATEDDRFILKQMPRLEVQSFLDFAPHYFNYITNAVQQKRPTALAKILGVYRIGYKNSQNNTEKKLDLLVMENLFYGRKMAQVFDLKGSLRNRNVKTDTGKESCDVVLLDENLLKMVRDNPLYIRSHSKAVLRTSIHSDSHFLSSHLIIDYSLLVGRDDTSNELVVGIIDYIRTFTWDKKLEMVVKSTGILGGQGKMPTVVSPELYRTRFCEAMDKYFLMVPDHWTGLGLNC

SMILES	sensitivity to compound-induced death [1]	inhibition at 0.05 µM [2] [%]	solubility in DMSO ([3]; DMSO)	concentration of solutions that can be prepared ([3]; DMSO (10%), cremaphor (20%), and water (70%))	cell killing [4]	cell viability (ATP level) [5]	cell killing [6]	induction of LC3 ([7]; 1 μM)	p62 degradation ([7]; 25, 500, or 20,000 nM)	LC3-II level ([7]; 25, 500, or 20,000 nM, starting at 6 hours, more evident by 24 hours)	induction of LC3 [8]	sensitivity to killing [9]
Cc1ccc(Nc2nc(N/N=C/c3c[nH]c4ccccc34)nc(N3CCOCC3)n2)cc1 [Example 1, (E)-4-(2-((1H-indol-3-yl)methylene)hydrazinyl)-6-morpholino-N-(p-tolyl)-1,3,5-triazin-2-amine]	more sensitive	> 99	soluble	at least 10 mg/ml	killing	killed effectively	killed by relatively low concentrations	less robust	not degraded	accumulated	dramatic and rapid induction	
Cc1ccc(Nc2nc(N/N=C/c3c[nH]c4ccccc34)cc(N3CCOCC3)n2)cc1 [Example 3, (E)-4-(2-((1H-indol-3-yl)methylene)hydrazinyl)-6-morpholino-N-(p-tolyl)pyrimidin-2-amine]												sensitive to killing
